Laboratory results from PubChem BioAssay (NCI).
Values joined by “and” are separate entries in the source; they are usually repeats but may differ in a detail not shown here. Identical values can stand only once.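 Dose response: 5 concentrations. Exposure: 48 h. Format: 96-well plates. Endpoint: linear interpolation; highest concentration if not reached. The concentration for 50% growth inhibition is given as GI50. TGI: concentration producing complete growth inhibition.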

What follows are compounds tested on NCI-H460 lung (assay: NCI anticancer screen, dose series, 48 h).

Row | Compound | TGI | GI50 [µM]
1 | O=C(/C=C/c1ccccc1)Oc1ccc(C(=O)/C=C/c2ccccc2)cc1 | 18.8 µM | 
2 | CCOC(=O)N1CCC(N[C@@H]2c3cc4c(cc3C(c3cc(OC)c(O)c(OC)c3)C3C(=O)OC[C@@H]32)OCO4)CC1 (stereo partly specified) | 0.887 µM and 2.88 µM | 
3 | NS(=O)(=O)c1ccc(NC(=S)/N=C/C2=C(O)c3ccccc3C2=O)cc1 | > 100 µM | 
4 | O=C1NC2c3c(I)sc(I)c3C(O)C2O1 (stereo unspecified) | > 100 µM | 
5 | CNc1cc2c(c3ccccc13)C(CCl)CN2C(=O)c1cc2cc(OC)c(OC)c(OC)c2[nH]1 (stereo unspecified) | 0.00226 µM | 
6 | NCCCN1c2ccccc2Sc2ccc(Cl)cc21 | > 7.31 µM | 
7 | CCOC(=O)c1cccc(N=Nc2nc[nH]c2/C=C/C(=O)OC)c1 | 53 µM | 
8 | O=C(O)CN1CCN2CCCCCN(CC1)CCN(CC(=O)O)CC2 | > 100 µM | 
9 | Cc1cccc(C)c1NC(=O)C(Cc1c[nH]c2ccccc12)NC(=O)OCc1ccccc1 (stereo unspecified) | 43.6 µM | 
10 | Clc1ccc(-c2nnc3sc4nc5ccccc5c-4nn23)c(Cl)c1 | > 100 µM | 
11 | N#CC(C#N)=C1SC(=Nc2ccccc2)C(=Nc2ccccc2)N1c1ccccc1 | > 31.6 µM | 
12 | Cc1ccc(C2=CC(=O)OC(C[P+](c3ccccc3)(c3ccccc3)c3ccccc3)(c3ccccc3)O2)cc1 (stereo unspecified) | 43.8 µM | 
13 | Cc1ccc(S(=O)(=O)n2c3c(c4ccccc42)CCN2C[C@H]([C@H](C)Br)CC[C@@H]32)cc1 | > 100 µM | 
14 | O=c1oc2cc(O)ccc2c(O)c1C(c1ccccc1)c1c(O)c2ccc(O)cc2oc1=O | > 100 µM | 
15 | C[n+]1c(/C=C/c2c(O)ccc3ccccc23)ccc2ccccc21 | 14.5 µM | 6.32
16 | O=C1c2cc(-c3ccccc3)cnc2S(=O)(=O)N1c1ccc(Br)cc1 | 75 µM | 
17 | O=C(NCP(=O)(Oc1ccccc1)Oc1ccccc1)OCc1ccccc1 | > 100 µM | 
18 | COC1=CC(=O)c2c(c(-c3nc(C)cs3)cn2C)C1=O | 3.82 µM | 
19 | C=CCn1c(=O)c(C(=O)Nc2nc(C34CC5CC(CC(C5)C3)C4)cs2)c(O)c2ccccc21 | > 100 µM | 
20 | CC(C)SC(=S)Sc1c(Cl)c(Cl)nc(Cl)c1Cl | 36.6 µM | 
21 | O=C(O)CN1CCNCCN(CC(=O)O)CCN(CC(=O)O)CCNCC1 | > 100 µM | 

Each compound was assayed on HL-60(TB) leukemia (assay: NCI anticancer screen, dose series, 48 h).

Row | Compound | TGI | GI50
22 | CCN1CN(c2ccccc2)C2(CCN(CC3COc4ccccc4O3)CC2)C1=O (stereo unspecified) | 45.5 µM | 
23 | C=C1C(=O)CC2C1CC(=O)/C(C)=C/CCC(C)(O)C2O (stereo unspecified) | 10.1 µM | 
24 | O=C1C=C/C(=N\N=C(c2ccccc2)c2ccccc2)O1 | > 10 µM | 
25 | C[C@H](CCC(=O)O)[C@H]1CC[C@H]2[C@@H]3C(=O)C[C@@H]4C[C@H](O)CC[C@]4(C)[C@H]3C[C@H](O)[C@]12C | > 100 µM | 
26 | CC(=O)NC1C(OCc2ccccc2)OC(CO)C(O)C1OCC(=O)N[C@@H](C)C(=O)N[C@H](CCC(=O)NCCCNc1c2ccccc2nc2cccc([N+](=O)[O-])c12)C(N)=O (stereo partly specified) | > 49.7 µM | 
27 | O=C(O)c1ccccc1CC(Cc1ccc2c(c1)CCC2)C(=O)O (stereo unspecified) | > 100 µM | 
28 | Cn1c(SCc2ccc(F)cc2)nnc1C12CC3CC(CC(C3)C1)C2 | 28.6 µM | 
29 | COC(=O)/C=C\C(C#N)(C#N)N=Cc1ccc(C)cc1 | 8.14 µM | 
30 | CC(c1ccccc1)N1CCN(C(C)c2ccccc2)CC1 (stereo unspecified) | > 100 µM | 
31 | COc1ccc(C(=O)/C=C/c2ccc(OCCCOc3ccc(/C=C/C(=O)c4ccc(OC)cc4)cc3)cc2)cc1 | > 100 µM | 
32 | O=C(O)COc1ccccc1C(=O)Nc1ccccc1 | > 100 µM | 
33 | COc1ccc(N2C(=O)CC(=O)N(NC(=O)C(C)Oc3ccccc3C)C2=S)cc1 (stereo unspecified) | > 100 µM | 
34 | COc1ccc(C2c3cn[nH]c3CC3CCCCC32)cc1 (stereo unspecified) | 61.2 µM | 
35 | C/C(=N\N=C1/C(=O)OC(c2ccccc2)=C1C(=O)c1ccccc1)c1ccc([N+](=O)[O-])cc1 | > 100 µM | 
36 | O=S(=O)(O)C(CO)c1ccccc1 (stereo unspecified) (tested in a mixture with another compound) | > 44.5 µM | 
37 | O=C1CC2(CCC(O)(c3ccc4ccccc4c3)C(C(=O)c3ccc4ccccc4c3)C2)C(=O)c2ccccc2N1 (stereo unspecified) | > 100 µM | 
38 | Cc1nc(C)c(N2CCN([N+](=O)[O-])CC2)c(=O)[nH]1 | > 100 µM | 
39 | Cc1nn(-c2ccccc2)c2c1C(c1cc3ccccc3nc1Cl)NC(=O)N2 (stereo unspecified) | 52.6 µM | 
40 | Cc1cc(/N=C/c2ccc(N(C)C)cc2)n(-c2ccccc2)n1 | > 100 µM | 
41 | O=C(/C=C/c1ccccc1)Oc1ccc(C(=O)/C=C/c2ccccc2)cc1 | 8.2 µM | 
42 | CCOC(=O)N1CCC(N[C@@H]2c3cc4c(cc3C(c3cc(OC)c(O)c(OC)c3)C3C(=O)OC[C@@H]32)OCO4)CC1 (stereo partly specified) | 2 µM and 5.46 µM | 0.221 µM and 0.468 µM

Row | Compound | TGI | GI50
43 | NS(=O)(=O)c1ccc(NC(=S)/N=C/C2=C(O)c3ccccc3C2=O)cc1 | > 100 µM | 
44 | O=C1NC2c3c(I)sc(I)c3C(O)C2O1 (stereo unspecified) | > 100 µM | 
45 | CNc1cc2c(c3ccccc13)C(CCl)CN2C(=O)c1cc2cc(OC)c(OC)c(OC)c2[nH]1 (stereo unspecified) | 0.000667 µM | 
46 | NCCCN1c2ccccc2Sc2ccc(Cl)cc21 | > 10 µM | 
47 | CCOC(=O)c1cccc(N=Nc2nc[nH]c2/C=C/C(=O)OC)c1 | 53.4 µM | 
48 | O=C(O)CN1CCN2CCCCCN(CC1)CCN(CC(=O)O)CC2 | 33.4 µM | 
49 | Cc1cccc(C)c1NC(=O)C(Cc1c[nH]c2ccccc12)NC(=O)OCc1ccccc1 (stereo unspecified) | 44.3 µM | 
50 | Clc1ccc(-c2nnc3sc4nc5ccccc5c-4nn23)c(Cl)c1 | > 100 µM | 
51 | N#CC(C#N)=C1SC(=Nc2ccccc2)C(=Nc2ccccc2)N1c1ccccc1 | > 24.6 µM | 
52 | Cc1ccc(C2=CC(=O)OC(C[P+](c3ccccc3)(c3ccccc3)c3ccccc3)(c3ccccc3)O2)cc1 (stereo unspecified) | 47.3 µM | 
53 | Cc1ccc(S(=O)(=O)n2c3c(c4ccccc42)CCN2C[C@H]([C@H](C)Br)CC[C@@H]32)cc1 | > 100 µM | 
54 | O=c1oc2cc(O)ccc2c(O)c1C(c1ccccc1)c1c(O)c2ccc(O)cc2oc1=O | > 100 µM | 
55 | C[n+]1c(/C=C/c2c(O)ccc3ccccc23)ccc2ccccc21 | 13.4 µM | 5.7 µM
56 | O=C1c2cc(-c3ccccc3)cnc2S(=O)(=O)N1c1ccc(Br)cc1 | > 100 µM | 
57 | O=C(NCP(=O)(Oc1ccccc1)Oc1ccccc1)OCc1ccccc1 | > 100 µM | 
58 | COC1=CC(=O)c2c(c(-c3nc(C)cs3)cn2C)C1=O | 9.44 µM | 
59 | C=CCn1c(=O)c(C(=O)Nc2nc(C34CC5CC(CC(C5)C3)C4)cs2)c(O)c2ccccc21 | 65.6 µM | 
60 | C=CCc1cc(-c2nc(=S)[nH][nH]2)ccc1N=NNc1ccc(C(=O)O)cc1 | > 100 µM | 
61 | CC(C)SC(=S)Sc1c(Cl)c(Cl)nc(Cl)c1Cl | 5.61 µM | 
62 | O=C(O)CN1CCNCCN(CC(=O)O)CCN(CC(=O)O)CCNCC1 | 64.6 µM | 

These compounds were tested on UACC-62 melanoma (assay: NCI anticancer screen, dose series, 48 h).

Row | Compound | TGI | GI50 [µM]
63 | CCN1CN(c2ccccc2)C2(CCN(CC3COc4ccccc4O3)CC2)C1=O (stereo unspecified) | 73.4 µM | 
64 | C=C1C(=O)CC2C1CC(=O)/C(C)=C/CCC(C)(O)C2O (stereo unspecified) | 14.8 µM | 
65 | O=C1C=C/C(=N\N=C(c2ccccc2)c2ccccc2)O1 | > 10 µM | 
66 | C[C@H](CCC(=O)O)[C@H]1CC[C@H]2[C@@H]3C(=O)C[C@@H]4C[C@H](O)CC[C@]4(C)[C@H]3C[C@H](O)[C@]12C | > 100 µM | 
67 | CC(=O)NC1C(OCc2ccccc2)OC(CO)C(O)C1OCC(=O)N[C@@H](C)C(=O)N[C@H](CCC(=O)NCCCNc1c2ccccc2nc2cccc([N+](=O)[O-])c12)C(N)=O (stereo partly specified) | 0.0601 µM | 
68 | Cn1c(SCc2ccc(F)cc2)nnc1C12CC3CC(CC(C3)C1)C2 | > 100 µM | 
69 | COC(=O)/C=C\C(C#N)(C#N)N=Cc1ccc(C)cc1 | 28.4 µM | 
70 | CC(c1ccccc1)N1CCN(C(C)c2ccccc2)CC1 (stereo unspecified) | > 100 µM | 
71 | COc1ccc(C(=O)/C=C/c2ccc(OCCCOc3ccc(/C=C/C(=O)c4ccc(OC)cc4)cc3)cc2)cc1 | > 100 µM | 
72 | O=C(O)COc1ccccc1C(=O)Nc1ccccc1 | > 100 µM | 
73 | COc1ccc(N2C(=O)CC(=O)N(NC(=O)C(C)Oc3ccccc3C)C2=S)cc1 (stereo unspecified) | > 100 µM | 
74 | COc1ccc(C2c3cn[nH]c3CC3CCCCC32)cc1 (stereo unspecified) | 24.6 µM | 
75 | C/C(=N\N=C1/C(=O)OC(c2ccccc2)=C1C(=O)c1ccccc1)c1ccc([N+](=O)[O-])cc1 | > 100 µM | 
76 | O=S(=O)(O)C(CO)c1ccccc1 (stereo unspecified) (tested in a mixture with another compound) | > 100 µM | 
77 | O=C1CC2(CCC(O)(c3ccc4ccccc4c3)C(C(=O)c3ccc4ccccc4c3)C2)C(=O)c2ccccc2N1 (stereo unspecified) | > 100 µM | 
78 | Cc1nc(C)c(N2CCN([N+](=O)[O-])CC2)c(=O)[nH]1 | > 100 µM | 
79 | Cc1nn(-c2ccccc2)c2c1C(c1cc3ccccc3nc1Cl)NC(=O)N2 (stereo unspecified) | 42.5 µM | 
80 | Cc1cc(/N=C/c2ccc(N(C)C)cc2)n(-c2ccccc2)n1 | > 100 µM | 

Row | Compound | TGI | GI50 [µM]
81 | O=C(/C=C/c1ccccc1)Oc1ccc(C(=O)/C=C/c2ccccc2)cc1 | 17.7 µM | 
82 | CCOC(=O)N1CCC(N[C@@H]2c3cc4c(cc3C(c3cc(OC)c(O)c(OC)c3)C3C(=O)OC[C@@H]32)OCO4)CC1 (stereo partly specified) | 2.87 µM and 5.37 µM | 
83 | NS(=O)(=O)c1ccc(NC(=S)/N=C/C2=C(O)c3ccccc3C2=O)cc1 | > 100 µM | 
84 | O=C1NC2c3c(I)sc(I)c3C(O)C2O1 (stereo unspecified) | > 100 µM | 
85 | CNc1cc2c(c3ccccc13)C(CCl)CN2C(=O)c1cc2cc(OC)c(OC)c(OC)c2[nH]1 (stereo unspecified) | 0.00209 µM | 
86 | NCCCN1c2ccccc2Sc2ccc(Cl)cc21 | > 10 µM | 
87 | CCOC(=O)c1cccc(N=Nc2nc[nH]c2/C=C/C(=O)OC)c1 | > 100 µM | 
88 | O=C(O)CN1CCN2CCCCCN(CC1)CCN(CC(=O)O)CC2 | > 100 µM | 
89 | Cc1cccc(C)c1NC(=O)C(Cc1c[nH]c2ccccc12)NC(=O)OCc1ccccc1 (stereo unspecified) | 41.3 µM | 
90 | Clc1ccc(-c2nnc3sc4nc5ccccc5c-4nn23)c(Cl)c1 | > 100 µM | 
91 | N#CC(C#N)=C1SC(=Nc2ccccc2)C(=Nc2ccccc2)N1c1ccccc1 | 14.2 µM | 
92 | Cc1ccc(C2=CC(=O)OC(C[P+](c3ccccc3)(c3ccccc3)c3ccccc3)(c3ccccc3)O2)cc1 (stereo unspecified) | 30.5 µM | 
93 | Cc1ccc(S(=O)(=O)n2c3c(c4ccccc42)CCN2C[C@H]([C@H](C)Br)CC[C@@H]32)cc1 | > 100 µM | 
94 | O=c1oc2cc(O)ccc2c(O)c1C(c1ccccc1)c1c(O)c2ccc(O)cc2oc1=O | > 100 µM | 
95 | C[n+]1c(/C=C/c2c(O)ccc3ccccc23)ccc2ccccc21 | 12.2 µM | 5.77
96 | O=C1c2cc(-c3ccccc3)cnc2S(=O)(=O)N1c1ccc(Br)cc1 | > 100 µM | 
97 | O=C(NCP(=O)(Oc1ccccc1)Oc1ccccc1)OCc1ccccc1 | > 100 µM | 
